Measurements published in patent US8043827B2, “Single molecule-format real-time bioluminescence imaging probe” (National Institute of Advanced Industrial Science and …, priority 2007, dated 2011).
Like-named read-outs stand apart in the source and are kept apart here.

Experiments:
Assay type in all cases: cell-based
[1] = tested on: ATP receptor which is an endogenous membrane receptor of COS-7 cells; assay: ATP concentration-dependent luminescence change in COS-7 cells carrying pSica-5
Procedure: For example, an ATP receptor which is an endogenous membrane receptor of COS-7 cells, is stimulated by 100 mM ATP, to thereby increase the concentration of Ca^2+. CaM in the probe responds to the elevated Ca^2+ Level, and as a result, the luminescence intensity is reduced. This phenomenon depends on the ATP concentration;
pSica-5 was transfected into COS-7 cells which have been cultured on a 24-well plate, using a transfection reagent (TransIT-LT1 (Mirus)). Then, the cells were cultured for 16 hours, and then the culture medium was exchanged with 200 μL of a mixed solution of a HBSS buffer (containing 1.3 mM Ca^2+) and the substrate. The values of luminescence change obtained thereafter were monitored by a luminescent plate reader (FIG. 5). After about 5 minutes, ATP was added at different concentrations, and changes in the luminescence values obtained thereafter were monitored. […] Meanwhile, no detectable change was recognized in the luminescence values for the buffer solution itself (phosphate buffer saline; PBS).

[2] = tested on: ATP receptors present on the cell membrane of MCF-7 cells; assay: Intracellular Ca^2+ level increased by ATP stimulation, MCF-7 cells transfected with pSica-5; settings: 1 mM ATP; host cell MCF-7 transfected with pSica-5
Procedure: (§1) pSica-5 was transfected into COS-7 cells or HeLa cells which have been cultured on a 24-well plate, using a transfection reagent (TransIT-LT1 (Mirus)). Then, the cells were cultured for 16 hours, and then the cell culture medium was exchanged with 200 μL of a PBS buffer solution supplemented with coeleterazine, which is the specific substrate, and 2 μM ionomycin. The values of luminescence change obtained thereafter were monitored by a luminescent plate reader (Mithras LB940; Berthold) (FIG. 7(A)). Four minutes after stabilization of the background luminescence, Ca^2+ was added to the cells on the wells at concentrations ranging from 10^−3.5 M to 10^−5.5 M. Thereafter, the changes in the luminescence values were immediately monitored by the above-mentioned luminescence plate reader. Changes in the luminescence values, which were dependent on the concentration of added Ca^2+, were monitored. Based on the values of luminescence fluctuations in this Ca^2+ concentration range, three kinds of calibration curves were produced with respect to the Ca^2+ concentration in the cultured cells. Variances in the luminescence intensity induced by the ATP concentration in COS-7, MCF-7 and HeLa cells, which had been respectively transfected with pSica-5, were measured (FIG. 7(B)). […]

[3] = tested on: ATP receptors present on the cell membrane of COS-7 cells; assay: Intracellular Ca^2+ level increased by ATP stimulation, COS-7 cells transfected with pSica-5; settings: 1 mM ATP; host cell COS-7 transfected with pSica-5
Procedure: as §1

[4] = molecular target: T1, GR LBD (human glucocorticoid receptor) (Homo sapiens, UniProt P04150); assay: Ligand sensitivity of living cells transfected with pSimgr; settings: steroid hormone sensitivity (FIG. 9(C))
T1 construct: expressed in transfected cells
T1 sequence (P04150 524-758 limits assumed): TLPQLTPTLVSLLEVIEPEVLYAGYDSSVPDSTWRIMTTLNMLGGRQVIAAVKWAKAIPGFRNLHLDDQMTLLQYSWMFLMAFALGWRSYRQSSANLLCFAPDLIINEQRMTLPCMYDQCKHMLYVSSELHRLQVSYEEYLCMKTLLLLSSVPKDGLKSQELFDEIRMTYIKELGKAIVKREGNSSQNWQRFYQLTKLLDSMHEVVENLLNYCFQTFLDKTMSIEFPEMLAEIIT
Text: These plasmids were designated as pSimar and pSimgr, respectively.

calmodulin (CaM) = molecular target: T2, calmodulin (CaM) (Xenopus laevis, UniProt P0DP33); assay: Ca^2+ concentration-dependent luminescence intensity in living cells transfected with pSica-5; settings: for EC50: 2 μM ionomycin, PBS, read-out: 50% effective concentration (EC50) based on changes in luminescence intensities
T2 construct: (CaM; 1-150 AA; GenBank/NM001087395); expressed in transfected cells; host or cells: COS-7 or HeLa cells, pSica-5 in pcDNA3.1(+)
Procedure: PCR amplification was carried out to introduce KpnI and BamHI, which are restriction enzyme sites, into the two termini of a cDNA encoding calmodulin, which is a Xenopus laevis (African clawed frog)-derived Ca^2+ recognition protein (CaM; 1-150 AA; GenBank/NM001087395). On the other hand, as an optimal luminescent enzyme which can be linked to the CaM as a single-molecule-format probe, Gaussia princeps-derived luciferase (GLuc; 1-189 AA; GenBank/AY015993) was used. Five fragment pairs were generated by fragmentizing five sites of the cDNA of GLuc by PCR reaction, and were used in the examination of the optimal partition sites for GLuc (FIG. 3), which will be discussed in Example 2.
pSica-5 was transfected into COS-7 cells or HeLa cells which have been cultured on a 24-well plate, using a transfection reagent (TransIT-LT1 (Mirus)). Then, the cells were cultured for 16 hours, and then the cell culture medium was exchanged with 200 μL of a PBS buffer solution supplemented with coeleterazine, which is the specific substrate, and 2 μM ionomycin. The values of luminescence change obtained thereafter were monitored by a luminescent plate reader (Mithras LB940; Berthold) (FIG. 7(A)). Four minutes after stabilization of the background luminescence, Ca^2+ was added to the cells on the wells at concentrations ranging from 10^−3.5 M to 10^−5.5 M. Thereafter, the changes in the luminescence values were immediately monitored by the above-mentioned luminescence plate reader. Changes in the luminescence values, which were dependent on the concentration of added Ca^2+, were monitored. Based on the values of luminescence fluctuations in this Ca^2+ concentration range, three kinds of calibration curves were produced with respect to the Ca^2+ concentration in the cultured cells.

For `Nc1ncnc2c1ncn2[C@@H]1O[C@H](COP(=O)(O)OP(=O)(O)OP(=O)(O)O)[C@@H](O)[C@H]1O` [ATP], the “changes in the luminescence values” ([1]; COS-7 cells with pSica-5, 1 mM, 100 μM and 10 μM ATP, HBSS buffer containing 1.3 mM Ca^2+) was “stimulant dose-dependent changes”, the luminescence intensity ([1]; COS-7 cells, probe with GLuc dissected at site #5, 100 mM ATP (FIG. 5 legend)) was “reduced” and the “Measured average of Ca^2+ concentrations (ave)” value [2] was 13 µM. The “Measured average of Ca^2+ concentrations (ave)” value [3] was 37.4 µM.

In the case of `C[C@]12CCC(=O)C=C1CC[C@@H]1[C@@H]2[C@@H](O)C[C@@]2(C)[C@H]1CC[C@]2(O)C(=O)CO` [cortisol], the “sensitivity of cells transfected with pSimgr” value [4] is reported as “strong sensitivity”.

For `[Ca+2]` [Ca^2+], the EC50 (calmodulin (CaM); COS-7 cells transfected with pSica-5) was 25 µM, the EC50 (calmodulin (CaM); HeLa cells transfected with pSica-5) was 50 µM and the “dissociation coefficient (Kd) between CaM and Ca^2+” value (calmodulin (CaM); HeLa cells, from the luminescence values) was 0.63×10^−17 M^4.
